Earlier results, collected in patent US20220288212A1, “FULLERENE P[…] AND METHODS” (Sinapu LLC, priority 2021, published 2022).

How the values were obtained:
[1] = room temperature
[2] = minimum of from 2.5 to 3 grams of EGCG ingested per day

In the case of `O=C(O[C@@H]1Cc2c(O)cc(O)cc2O[C@@H]1c1cc(O)c(O)c(O)c1)c1cc(O)c(O)c(O)c1` [EGCG, epigallocatechin gallate], the “maximum solubility in water” value [1] is listed as 92 grams per liter and the blood serum concentration [2] is listed as 100 to 1000 nM.
